The results in this text go back to ChEMBL document CHEMBL5715952 (Oncotarget, 2015).

Assay [1] has as its system ANBL-6. Put plainly: Induction of apoptosis in wild-type human ANBL-6 cells assessed as early apoptosis at 1600 nM incubated for 72 hrs by annexin V and 7-AAD staining by flow cytometry analysis (Rvb=14 %). In kind it is functional.
Assay [2] relates to Bortezomib-resistant ANBL6. Nature of the assay: Synergistic antiproliferative activity against human bortezomib-resistant ANBL6 cells assessed as reduction in cell viability at ED90 incubated for 72 hrs in presence of bortezomib by MTS assay. In kind it is functional. For orientation: Formazan colour is commonly taken as a measure of viable cells.
Assay [3] has as its system ANBL-6. Put plainly: Synergistic antiproliferative activity against wild-type human ANBL-6 cells assessed as reduction in cell viability at ED50 incubated for 72 hrs in presence of bortezomib by MTS assay. In kind it is functional.
In a further assay the test system is RPMI-8226. Nature of the assay: Synergistic antiproliferative activity against wild-type human RPMI-8226 cells assessed as reduction in cell viability at ED90 incubated for 72 hrs in presence of bortezomib by MTS assay. In kind it is functional.
The subject of assay [4] is ANBL-6. Put plainly: Induction of apoptosis in wild-type human ANBL-6 cells assessed as viable at 40 nM incubated for 72 hrs by annexin V and 7-AAD staining by flow cytometry analysis (Rvb=59 %). The format is functional. (In general: Flow cytometry measures light scatter and fluorescence of single cells or particles in a stream.)
Assay [5] has as its target T1, Bromodomain and extra-terminal motif (BET) (Homo sapiens) (UniProt P25440+O60885+Q58F21+Q15059). As to conditions: ANBL-6, dose lower 40.0 nM, dose upper […].
Assay [6] addresses T1, Bromodomain and extra-terminal motif (BET) (Homo sapiens). As to conditions: Bortezomib-resistant ANBL6 cell, dose lower 40.0 nM, dose upper […].
The subject of assay [7] is Bortezomib-resistant ANBL6. Put plainly: Synergistic antiproliferative activity against human bortezomib-resistant ANBL6 cells assessed as reduction in cell viability at ED75 incubated for 72 hrs in presence of bortezomib by MTS assay. In kind it is functional.
Assay [8] deals with Bortezomib-resistant ANBL6. Nature of the assay: Synergistic apoptosis activity in human bortezomib-resistant ANBL6 cells assessed as late apoptosis at 1600 nM incubated for 72 hrs in the presence of BTZ by annexin V and 7-AAD staining by flow cytometry analysis (Rvb=5 %). The format is functional.
The subject of assay [9] is ANBL-6. Nature of the assay: Synergistic apoptosis activity in wild-type human ANBL-6 cells assessed as viable at 1600 nM incubated for 72 hrs in the presence of BTZ by annexin V and 7-AAD staining by flow cytometry analysis (Rvb=59 %). In kind it is functional.
Assay [10] in a line: Synergistic antiproliferative activity against human melphalan-resistant RPMI-8226 cells assessed as reduction in cell viability at ED75 incubated for 72 hrs in presence of bortezomib by MTS assay. The format is functional, Melphalan-resistant RPMI-8226 cell.
The test system of assay [11] is ANBL-6. Nature of the assay: Synergistic apoptosis activity in wild-type human ANBL-6 cells assessed as early apoptosis at 1600 nM incubated for 24 hrs in the presence of BTZ by annexin V and 7-AAD staining by flow cytometry analysis. The format is functional.

The source made the active and inactive calls. No cut-off for these calls is given here.

On to `Cc1sc2c(c1C)C(c1ccc(Cl)cc1)=N[C@@H](CC(N)=O)c1nnc(C)n1-2`, for which the Activity worked out at 31% in the assay with ANBL-6 [1], 59% in the assay with ANBL-6 [4], 10% in [8] and 6% in the assay with ANBL-6 [9]. In addition, the CI stood at 0.355 in [2]; 0.793 with ANBL-6 [3]; 1.041 with RPMI-8226; 0.494 in assay [7]; 0.693 in assay [10]; 0.85 in the assay with ANBL-6 [11]. Also, the inhibition entry in [5] was “Dose-Dependent Effect”. In addition, the inhibition entry in [6] was “inactive”.
